Laboratory results from US8242146B2, “Combination of a NSAID and a PDE-4 inhibitor” (Nycomed GmbH, priority 2002, dated 2012).
pIC50: −log10 of the molar value.

What was measured:
[1] = molecular target: partially purified or recombinant PDE5 (Homo sapiens, UniProt O76074); assay: Inhibition of phosphodiesterase 5 in vitro; type: biochemical
[2] = molecular target: partially purified or recombinant PDE4; assay: Inhibition of phosphodiesterase 4 in vitro; type: biochemical
[3] = test system: isolated guinea pig Langendorff hearts; assay: Isolated guinea pig Langendorff heart
[4] = Diclofenac induced blood loss in mice (fecal hemoglobin); type: in vivo; settings: male, NMRI, mouse, feces, oral; mice, 3-100 mg/kg p.o., spectrophotometric determination of fecal hemoglobin; read-out: ED50 of induced gastrointestinal bleeding
Protocol: (§1) Male NMRI mice (Charles River Laboratories, Sulzfeld, Germany) weighting 23-25 g were housed in groups of 5 under standard conditions at a temperature of 22° C.+/−2° C. and a 12 h light-dark cycle. If not otherwise stated animals had free access to tap water and standard food pellets. Diclofenac was administrated at doses from 1-100 mg/kg p.o.; rolipram, roflumliast and RP73401 were given at doses from 1-100 mg/kg p.o. Preventive treatment: Diclofenac was given at time point 0 h. At time points −24, −16, 0 h, +7 h one of the selective PDE4 inhibitors was administered. Curative treatment: Diclofenac was given at time point 0 h. At time points +1 h and +7 h one of the selective PDE4 inhibitors was administered. The drugs used were dissolved in 4% aqueous methyl cellulose. The animals were food reduced 24 h prior diclofenac administration. For each experiment 5 animals were used for one experimental point. Following 24 h administration of drugs animals were weighted and stool was collected quantitatively and homogenized as described below:
(§2) The modified method of Welch (Clin. Chem. 29/12, 2022-2025, 1983) was used. The amount of hemoglobin was determined by the heme catalyzed oxidation of tolidine in the presence of hydrogen peroxide. Feces was homogenized in destined water in a concentration with 1 g feces/6.6 ml H20 with an ultra-turrax (IKA-Werke, Germany). 500 μl aliquots from two different areas of the stool were taken to minimize error due to inhomogenous distribution of blood in the feces and heated 10 min at 95° C. to inactivate peroxidases and than diluted with 500 μl of acetic acid/H20 (30/70 vol/vol). Hemoglobin was extracted in 2.5 ml of acetic acid/H20 (30/70 vol/vol) by the addition of 4.5 ml ethyl acetate. The sample was rigorously shacked and the supernatant was used following a centrifugation step for optical detection of hemoglobin. Tolidine was prepared freshly from a stock solution (0.4 g tolidine in 10 ml ethanol) by mixing equal volumes of stock solution, H20 and acetic acid and equilibrated at room temperature. 20 μl of extracted supernatant was diluted to 100 μl ethyl acetate in a 96er crystal plate and incubated with 50 μl of the working solution. The reaction was initiated by the injection of 25 μl hydrogen peroxide (6%) in a Wallac Victor spectro-photometer (Turku, Finnland). The increase of OD 690 was monitored by a kinetic analysis and expressed as ΔOD690/min.

[5] = test system: Male NMRI mice; assay: Indomethacin induced blood loss in mice (fecal hemoglobin); type: in vivo; settings: NSAID 30 mg/kg indomethacin; PDE4 inhibitor 100 mg/kg p.o., curative
Protocol: as §1, with “Diclofenac was administrated at doses from 1-100 mg/kg p.o.; rolipram, roflumliast and RP73401 were given at doses from 1-100 mg/kg p.o. Preventive treatment: Diclofenac was given at time point 0 h.” left out, “Curative treatment: Diclofenac was given at time point 0 h.” left out
The modified method of Welch (Clin. Chem. 29/12, 2022-2025, 1983) was used. The amount of hemoglobin was determined by the heme catalyzed oxidation of tolidine in the presence of hydrogen peroxide. Feces was homogenized in destined water in a concentration with 1 g feces/6.6 ml H20 with an ultra-turrax (IKA-Werke, Germany). […] The increase of OD 690 was monitored by a kinetic analysis and expressed as ΔOD690/min.

[6] = test system: Male NMRI mice; assay: Diclofenac induced blood loss in mice (fecal hemoglobin); type: in vivo; settings: for % reduction of ΔOD690/min: NSAID 100 mg/kg diclofenac
Protocol: as §1, §2

Compound | IC50 PDE5 [1] [µM] | PDE5 activity (in words) [1] | pIC50 [2] | PDE4 activity (in words) [2] | other results
CC(=O)Oc1ccccc1C(=O)O [ASS, 2-(acetyloxy)benzoic acid] | >100 | only minor effects | < 4.00 | only minor effects | –
CS(=O)(=O)Nc1cc2c(cc1Oc1ccc(F)cc1F)C(=O)CC2 [CGP28238, 6-(2,4-difluorophenoxy)-5-methylsulfonylamino-1-indanone] | 14 | in the μM range | 4.64 | in the μM range | –
Cc1ccc(-c2cc(C(F)(F)F)nn2-c2ccc(S(N)(=O)=O)cc2)cc1 [Celecoxib, 4-[5-(4-methylphenyl)-3-(tri-fluoromethyl)-1H-pyrazol-1-yl]benzenesulfonamide] | – | in the μM range | 5.22 | in the μM range | heart rate [3]: no effect; left ventricular pressure [3]: no effect; coronary heart flow ([3]; doses consistent with inhibitory potency on PDE4 and 5): selectively increased
O=C(O)Cc1ccccc1Nc1c(Cl)cccc1Cl [Diclofenac, 2-[(2,6-dichlorophenyl)amino]benzeneacetic acid] | >100 | only minor effects | < 4.00 | only minor effects | ED50 at 24 h [4]: 56 mg/kg
COc1ccc2c(c1)c(CC(=O)O)c(C)n2C(=O)c1ccc(Cl)cc1 [Indometacin, 1-(4-chlorobenzoyl)-5-methoxy-2-methyl-1H-indole-3-acetic acid] | 62 | only minor effects | ~4.00 | only minor effects | –
CS(=O)(=O)Nc1cc2c(cc1Sc1ccc(F)cc1F)C(=O)CC2 [L-745337, 5-methanesulfonamido-6-(2,4-difluorophenylthio)-1-indanone] | 24 | in the μM range | 4.51 | in the μM range | –
CS(=O)(=O)Nc1ccc([N+](=O)[O-])cc1Oc1ccccc1 [Nimesulide, 4′-nitro-2′-phenoxymethansulfonamide] | 25 | in the μM range | 4.24 | in the μM range | –
COc1ccc(C(=O)Nc2c(Cl)cncc2Cl)cc1OC1CCCC1 [RP73401] | – | – | – | – | % reduction of ΔOD690/min [5]: 96%
O=C(Nc1c(Cl)cncc1Cl)c1ccc(OC(F)F)c(OCC2CC2)c1 [Roflumilast, 3-Cyclopropylmethoxy-4-difluoromethoxy-N-(3,5-dichloropyrid-4-yl)-benzamide] | – | – | – | – | % reduction of ΔOD690/min ([6]; PDE4 inhibitor 3 mg/kg p.o., curative): 95%; % reduction of ΔOD690/min ([6]; PDE4 inhibitor 10 mg/kg p.o., preventive): 95%
COc1ccc(C2CNC(=O)C2)cc1OC1CCCC1 (centres unmarked) [Rolipram] | – | – | – | – | % reduction of ΔOD690/min [5]: 65%; % reduction of ΔOD690/min ([6]; PDE4 inhibitor 10 mg/kg p.o., curative): 82%; % reduction of ΔOD690/min ([6]; PDE4 inhibitor 30 mg/kg p.o., preventive): 90%
CCCc1nn(C)c2c(=O)[nH]c(-c3cc(S(=O)(=O)N4CCN(C)CC4)ccc3OCC)nc12 [sildenafil] | – | – | – | – | protection from NSAID-induced blood loss ([6]; diclofenac 10-100 mg/kg p.o. t=0 h, sildenafil 3-100 mg/kg p.o. t=-48 h to +7 h): no protection
